Measurements taken from US7704723B2, “Isolation and characterization of novel clostridial species” (The Board of Regents For Oklahoma State University, priority 2006, dated 2010).
Marks after values point to notes of the source that are not given here.

Legend:
[1] = tested on: Clostridium ragsdalei strain P11; test: Growth of strain P11 on organic and gaseous substrates as sole carbon and energy sources; type: cell-based; details: for Growth with substrate: Clostridium ragsdalei, malate and formate examined at pH 5.0-6.5; for Substrate utilization, C. ragsdalei: strain P11, growth on substrate as sole carbon and energy source, final OD600
Description: (§1) Except for the deletion of NaHCO3 and an initial pH 6.3, growth on organic and gaseous substrates was performed as previously described (Tanner et. al., 1993). Resazurin (1 mg/L) was used as the redox indicator. Purified agar was added to the medium at a concentration of 2% for colony morphology description (Table 5). Heat labile substrates were filter sterilized (not autoclaved) and added from sterile stock solutions to a final concentration of 5 g/L before inoculation. The optimum temperature and pH (initial pH) was determined in medium containing fructose as the substrate. For determination of the optimum pH, media was buffered with HOMOPIPES (homopiperazine-N,N′-bis-2-[ethanesulfonic acid] (Research Organics, Cleveland, Ohio), MES (2-[N-morpholino]ethanesulfonic acid), or TES (N-tris [hydroxymethyl]methyl-2-aminoethanesulfonic acid) at (1.0 g/L). A 0.1 ml (˜2%) inoculum of fructose-grown cells was used to initiate growth. All media components used in these experiments were obtained from Sigma unless otherwise noted (Sigma Chemical Co., St. Louis, Mo.).
(§2) Analytical methods. […] For the substrate malate, utilization was analyzed by HPLC (“high-performance liquid chromatography”) equipped with a UV detector set at 214 nm using a Alltech, Prevail Organic Acid column (4.6×150 mm, 5 μm; Alltech, Deerfield, Mich.) with a mobile phase of 25 mM KH2PO4, pH 2.5 and 10% (v/v) methanol.

[2] = tested on: Clostridium ljungdahlii strain PETC; test: Growth of reference strain PETC on substrates as sole carbon and energy sources; type: cell-based; details: for Substrate utilization, C. ljungdahlii: strain PETC, growth on substrate as sole carbon and energy source, final OD600
From the text: Organisms. Clostridium ljundahlii strain PETC was obtained from a fructose stock culture maintained by Dr. Ralph S. Tanner and was used as the reference control strain. Strain P11 was obtained from an anaerobic enrichment inoculated with fresh water sediment from the Duck Pond at the University of Oklahoma by a procedure described previously (Bryant, 1972) under an atmosphere of CO:N2:CO2 (75:15:10) and an initial pH of 6.0. The carbon monoxide oxidizing clostridium described within was named Clostridium ragsdalei. This bacterium was designated strain P11 and deposited with the American Type Culture Collection as strain ATCC BAA-622.
as §1, §2

Row | Molecule | Growth with substrate [1] | Substrate utilization, C. ragsdalei [1] | Substrate utilization, C. ljungdahlii [2] | Growth with malate as the sole carbon source after adaptation ([2]; after incubation of about thirty days, pH 5.0-6.5) | Doubling time ([1]; strain P11 grown with the substrate under optimal conditions) [h⁻¹]
1 | CCCO [1-Propanol] | chemoorganotrophic growth was observed | + (positive (indicates a final OD600 of greater than or equal to 0.1.)) | +^† (positive (indicates a final OD600 of greater than or equal to 0.1.)) |  | 
2 | C[C@H](N)C(=O)O [Alanine] | chemoorganotrophic growth was observed |  |  |  | 
3 | N#C[C@H](O[C@@H]1O[C@H](CO[C@@H]2O[C@H](CO)[C@@H](O)[C@H](O)[C@H]2O)[C@@H](O)[C@H](O)[C@H]1O)c1ccccc1 [Amygdalin] |  | − | − |  | 
4 | O=C[C@@H](O)[C@H](O)[C@H](O)CO [Arabinose] |  | − |  |  | 
5 | N=C(N)NCCC[C@H](N)C(=O)O [Arginine] |  | − |  |  | 
6 | C[N+](C)(C)CC(=O)O [Betaine] |  | − | − |  | 
7 | OC[C@H]1O[C@@H](O[C@H]2[C@H](O)[C@@H](O)[C@H](O)O[C@@H]2CO)[C@H](O)[C@@H](O)[C@@H]1O [Cellibiose] |  | − | − |  | 
8 | O=C[C@@H](O)[C@H](O)CO [D (−) Threose] | chemoorganotrophic growth was observed |  |  |  | 
9 | O=C[C@H](O)[C@H](O)CO [Erythrose] |  | − | − |  | 
10 | O=C(CO)[C@@H](O)[C@H](O)[C@H](O)CO [Fructose] | chemoorganotrophic growth was observed |  |  |  | 
11 | C[C@H](O)[C@@H](O)[C@@H](O)[C@H](O)C=O [Fucose] |  | − | − |  | 
12 | O=C[C@H](O)[C@@H](O)[C@@H](O)[C@H](O)CO [Galactose] |  | − | − |  | 
13 | O=C(O)[C@H](O)[C@@H](O)[C@H](O)[C@H](O)CO [Gluconic acid] |  | − |  |  | 
14 | N[C@@H](CCC(=O)O)C(=O)O [Glutamate] | chemoorganotrophic growth was observed | + (positive (indicates a final OD600 of greater than or equal to 0.1.)) | +^† (positive (indicates a final OD600 of greater than or equal to 0.1.)) |  | 
15 | NC(=O)CC[C@H](N)C(=O)O [Glutamine] |  | − | − |  | 
16 | OCC(O)CO [Glycerol] |  | − | − |  | 
17 | O=C(O)CO [Glycolic acid] |  | − | − |  | 
18 | N[C@@H](Cc1c[nH]cn1)C(=O)O [Histidine] |  | − |  |  | 
19 | O[C@H]1[C@H](O)[C@@H](O)[C@H](O)[C@@H](O)[C@H]1O [Inositol] |  | − | − |  | 
20 | CC(C)O [Iso-propanol] |  | − | − |  | 
21 | O=C[C@H](O)[C@@H](O)CO [L (+) Threose] |  | − | − |  | 
22 | OC[C@H]1O[C@@H](O[C@H]2[C@H](O)[C@@H](O)C(O)O[C@@H]2CO)[C@H](O)[C@@H](O)[C@H]1O (stereo partly drawn) [Lactose] |  | − | − |  | 
23 | O=C(O)/C=C\C(=O)O [Maleic acid] |  | − | − |  | 
24 | O=C(O)CC(O)C(=O)O (stereo not drawn) [Malic acid] | did not initially support growth | − | − | able to grow | 

Row | Molecule | Growth with substrate [1] | Substrate utilization, C. ragsdalei [1] | Substrate utilization, C. ljungdahlii [2] | Growth with malate as the sole carbon source after adaptation ([2]; after incubation of about thirty days, pH 5.0-6.5) | Doubling time ([1]; strain P11 grown with the substrate under optimal conditions) [h⁻¹]
25 | OC[C@H]1O[C@H](O[C@H]2[C@H](O)[C@@H](O)[C@H](O)O[C@@H]2CO)[C@H](O)[C@@H](O)[C@@H]1O [Maltose] |  | − | − |  | 
26 | OC[C@@H](O)[C@@H](O)[C@H](O)[C@H](O)CO [Mannitol] |  | − | − |  | 
27 | OC[C@H]1O[C@H](OCC2O[C@@H](O)[C@H](O)[C@@H](O)[C@@H]2O)[C@H](O)[C@@H](O)[C@H]1O (stereo partly drawn) [Melibiose] |  | − | − |  | 
28 | OC[C@H]1O[C@@](CO)(O[C@H]2O[C@H](CO)[C@@H](O)[C@H](O)[C@H]2O)[C@@H](O[C@H]2O[C@H](CO)[C@@H](O)[C@H](O)[C@H]2O)[C@@H]1O [Melizitose] |  | − | − |  | 
29 | CO [Methanol] |  | − | − |  | 
30 | CC(=O)[O-].[Na+] [Na-Acetate] |  | − | − |  | 
31 | O=C([O-])CC(O)(CC(=O)[O-])C(=O)[O-].[Na+].[Na+].[Na+] [Na-Citrate] |  | − | +* (positive (indicates a final OD600 of greater than or equal to 0.1.)) |  | 
32 | O=C[O-].[Na+] [Na-Formate] | did not initially support growth | − | − |  | 
33 | O=C([O-])/C=C/C(=O)[O-].[Na+].[Na+] [Na-Fumarate] |  | − |  |  | 
34 | CC(O)C(=O)[O-].[Na+] (stereo not drawn) [Na-Lactate] |  | − | − |  | 
35 | CCC(=O)[O-].[Na+] [Na-Propionate] |  | − | − |  | 
36 | CC(=O)C(=O)O [Na-Pyruvate] | chemoorganotrophic growth was observed |  |  |  | 
37 | O=C([O-])CCC(=O)[O-].[Na+].[Na+] [Na-Succinate] |  | − | − |  | 
38 | C[C@H](O)[C@H](O)[C@@H](O)[C@@H](O)C=O [Rhamnose] |  | − |  |  | 
39 | OCc1ccccc1O[C@@H]1O[C@H](CO)[C@@H](O)[C@H](O)[C@H]1O [Salicin] |  | − | − |  | 
40 | N[C@@H](CO)C(=O)O [Serine] | chemoorganotrophic growth was observed |  |  |  | 
41 | OC[C@@H](O)[C@@H](O)[C@H](O)[C@@H](O)CO [Sorbitol] |  | − | − |  | 
42 | OC[C@H]1O[C@@](CO)(O[C@H]2O[C@H](CO)[C@@H](O)[C@H](O)[C@H]2O)[C@@H](O)[C@@H]1O [Sucrose] | chemoorganotrophic growth was observed |  |  |  | 
43 | OC[C@H]1O[C@H](O[C@H]2O[C@H](CO)[C@@H](O)[C@H](O)[C@H]2O)[C@H](O)[C@@H](O)[C@@H]1O [Trehalose] |  | − | − |  | 
44 | O=C(CO)[C@@H](O[C@H]1O[C@H](CO)[C@@H](O)[C@H](O)[C@H]1O)[C@H](O)[C@H](O)CO [Turanose] |  | − | − |  | 
45 | O=C[C@H](O)[C@@H](O)[C@H](O)CO [Xylose] | chemoorganotrophic growth was observed |  |  |  | 0.220
46 | O=C(O)CCC(=O)C(=O)O [alpha-ketoglutarate] |  | − | + (positive (indicates a final OD600 of greater than or equal to 0.1.)) |  | 
47 | Cellulose |  | − | − |  | 
